Laboratory results published in ChEMBL document CHEMBL4406872, “Synthesis and structure activity relationship of 1, 3-benzo-thiazine-2-thiones as selective HDAC8 inhibitors” (Eur J Med Chem, 2019).

assay: physchem; conditions: bicarbonate buffer

SMILES | remaining at 24 h, 5000 µM
Fc1ccc2c(c1)C1=NCCN1C(=S)S2 | > 95%
S=C1Sc2cc(Br)ccc2C2=NCCCN12 | > 95%
Cc1cccc2c1C1=NCCN1C(=S)S2 | > 95%
N=C1Sc2ccccc2C2=NCCCN12 | < 5%
